Measured values from patent US12528777B2, “Quinazolinones derivatives for treatment of non-alcoholic fatty liver disease, preparation and use thereof” (Council of Scientific and Industrial Research, priority 2020, dated 2026).
“Also recorded” adds a separate entry of the source.

Legend:
Assay type in all cases: cell-based
COP1 [1] = molecular target: COP1 (Homo sapiens, UniProt Q8NHY2); test: Immunoprecipitation assay of COP1 autoubiquitination in HepG2 cells; details: 5 μM, 24 hours, MG-132
Procedure: COP1 is capable of auto ubiquitinating its own self and getting degraded via the proteasomal pathway. To probe into this, HepG2 cells were co-transfected with HA tagged Ubiquitin and myc-flag tagged COP1. The transfected cells were treated with 5 μM of compounds 9, 10, 107 and 238 for 24 hours. MG-132, a proteasomal inhibitor, was added 4 hours before harvesting the cells. Immune complexes were pulled down with anti-myc antibody and immunoblot was done using anti-HA antibody. […] Thus, the compounds of the present disclosure could be potent therapeutic targets by being able to block the proteasomal degradation of ATGL which would then be able to carry out its lipolytic action and reverse the symptoms of steatosis.
For checking the autoubiquitination status of COP1, HepG2 cells were cotransfected with 2 μg each of Myc-DDK-COP1 and HA-Ub plasmids using Lipofectamine 2000 reagent (Invitrogen) in OptiMEM media (HiMedia). The rest of the procedure is similar to that done for Myc-ATGL.

HepG2 cells [2] = test: Confocal microscopy: lipid droplets in oleate induced HepG2 cells; design: key to Reduction in Lipid Droplets: + = slight or in insignificant; ++ = Moderate; +++ and ++++ = active; +++ and ++++ = active; +++++ = very active; details: for Number of lipid droplets: HepG2 cells, 250 μM oleate induction; for Reduction in Lipid Droplets: oleate induced HepG2 cells, score
Summary of the method: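 HepG2 cells were loaded with 250 μM oleate and given compound in DMSO (10 μM screen; 10 nM–5 μM dose series) for 24 h; BSA as negative control. Lipid droplets stained with BODIPY/Hoechst, imaged confocally; mean droplets per cell counted over ~20 cells versus oleate-only cells.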

HepG2 cells [3] = test: Basal oxygen consumption rate (OCR) by Seahorse; details: 5 μM, 24 hours
Procedure: HepG2 cells were plated in Seahorse cell culture microplates (24 well). Cells were treated with 5 μM of compounds 9, 107, 238 and 238a for 24 hours. The calibrator plate was dipped in the calibrator solution and incubated overnight at 37° C. in a non-CO2 incubator. The next day, cells were washed with Agilent Seahorse XF Base Medium, Minimal DMEM twice, making sure to leave at least 50 μl of media in the wells and incubated for 1 hour at 37° C. in a non-CO2 incubator. Following this, oxygen consumption rate was measured in the Seahorse instrument. FIG. 12 illustrates basal oxygen consumption rate of compounds 9, 107, 238a, and 238.

COP1 [4] = test: qPCR of COP1 mRNA in HepG2 cells; details: 5 μM and 10 μM, 24 hours
Procedure: Ubiquitination of ATGL by COP1 is a post translational event, therefore, it is expected that the mRNA level of ATGL will not change compared to control upon treatment with the compound of the present disclosure which inhibit COP1. To establish this, HepG2 cells were treated with 5 μM and 10 μM of the compounds 9, 107, 171, 179 and 73 for 24 hours. RNA was isolated using TRIzol reagent followed by chloroform treatment and precipitation with isopropanol. cDNA was obtained from the isolated RNA and qPCR was carried out using SyBr green reagent. COP1 and ATGL gene expression levels were checked. 18s was used as control. FIG. 8 illustrates that compounds exert no effect on the mRNA levels of ATGL.

ATGL = test: Immunoprecipitation assay of ATGL ubiquitination in myc-ATGL HepG2 cells; details: 5 μM, 24 hours, MG-132, poly ubiquitin smear
Procedure: To this end, an immunoprecipitation assay was performed wherein HepG2 cells overexpressing myc-ATGL were transfected with HA-Ubiquitin and treated with 5 μM of the compounds 9, 10, 107, 215, 219 and 238. MG-132, a proteasomal inhibitor, was added 4 hours before harvesting the cells. Immune complexes were pulled down with anti-myc antibody and immunoblot was done using anti-HA antibody. The resultant smears on the blot reflect the ubiquitination status of ATGL.
For checking the change in the ubiquitination status of ATGL on compound treatment, Myc-ATGL expressing HepG2 cells (ATGL overexpressing cell line) was transfected with 2 μg of a plasmid harboring the HA tagged ubiquitin gene using Lipofectamine 2000 reagent (Invitrogen) in OptiMEM media (HiMedia). Fresh DMEM complete media was added after 8-10 hours of transfection. After roughly 24 hours of transfection, 5 μM of the compounds 9, 10 and 107 was added and cells were harvested post 24 hours of treatment. 4 hours prior to cell harvesting, 10 μM of proteasomal inhibitor MG132 (Calbiochem, Merck Millipore) was added to the cells. Proteins were isolated from the cells and protein concentration was estimated as described previously. 30 μl of PureProteome Protein A/G Mix Magnetic Beads (Merck Millipore) was taken in a 1.5 ml microcentrifuge tube, placed in a Magna Rack (Merck Millipore) and allowed to adhere to the side of the tube. 200 μg of protein was used for immunoprecipitation reaction in a reaction volume of 1 ml. 2 μl of anti-Myc primary antibody (Cell Signaling Technology) was added and the tube was incubated overnight at 4° C. in a rotary shaker. The next day, the tube was placed back in the Magna Rack and the beads were allowed to attach to the tube. To remove non-specific and unattached reactants, 1×PBS and 0.1% Triton-X was used for washing. 2× loading dye and Lysis Buffer was added and heated at 95° C. for 10 minutes to allow the immune complex to dislodge from the magnetic beads. Western Blot was performed subsequently as described before with anti-HA primary antibody for immunoblotting (Cell Signaling Technology). The activity trends of the synthesized compounds are disclosed in Table-5.

Sequence of COP1 (Homo sapiens, UniProt Q8NHY2) (Q8NHY2 whole entry): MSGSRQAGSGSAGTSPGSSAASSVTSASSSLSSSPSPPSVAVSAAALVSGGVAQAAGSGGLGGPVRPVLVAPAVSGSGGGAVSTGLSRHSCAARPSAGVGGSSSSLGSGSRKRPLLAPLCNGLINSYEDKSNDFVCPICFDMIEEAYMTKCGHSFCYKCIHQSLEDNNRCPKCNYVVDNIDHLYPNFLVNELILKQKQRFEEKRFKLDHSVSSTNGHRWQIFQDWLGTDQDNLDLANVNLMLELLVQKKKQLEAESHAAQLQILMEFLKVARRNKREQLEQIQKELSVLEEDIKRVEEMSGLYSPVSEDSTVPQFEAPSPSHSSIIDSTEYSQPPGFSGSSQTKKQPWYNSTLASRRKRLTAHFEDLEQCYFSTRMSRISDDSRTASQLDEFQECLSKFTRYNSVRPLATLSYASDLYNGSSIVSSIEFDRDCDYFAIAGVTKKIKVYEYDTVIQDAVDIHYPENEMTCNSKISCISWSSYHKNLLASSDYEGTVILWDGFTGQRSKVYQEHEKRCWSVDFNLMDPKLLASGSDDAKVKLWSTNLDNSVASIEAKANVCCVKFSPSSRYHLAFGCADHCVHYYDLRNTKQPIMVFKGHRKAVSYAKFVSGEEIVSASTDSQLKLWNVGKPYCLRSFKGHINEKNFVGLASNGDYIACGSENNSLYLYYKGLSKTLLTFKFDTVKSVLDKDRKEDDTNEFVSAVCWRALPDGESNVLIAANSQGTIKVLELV

Row | Compound | COP1 autoubiquitination in HepG2 cells (COP1 [1]) | Number of lipid droplets (HepG2 cells [2]) | Reduction in Lipid Droplets (HepG2 cells [2]) | Basal oxygen consumption rate (HepG2 cells [3]) | COP1 mRNA level (COP1 [4]) | ATGL ubiquitination in HepG2 cells (ATGL)
1 | COCCn1cnc2ccc(NC(=O)Nc3cccc(C(C)=O)c3)cc2c1=O [Compound 9, 1-(3-acetylphenyl)-3-(3-(2-methoxyethyl)-4-oxo-3,4-dihydroquinazolin-6-yl)urea] | effective in reducing; also recorded: markedly reduce COP1's auto ubiquitination property | decrease in the number of lipid droplets | ++++ | higher oxygen consumption rate compared to control; also recorded: increase in the basal OCR values | no significant changes | effective in reducing the ATGL ubiquitination by COP1; also recorded: subtle reduction in the ubiquitination smear
2 | COCCn1c(C)nc2ccc(NC(=O)Nc3cccc(C(C)=O)c3)cc2c1=O [Compound 107, 1-(3-acetylphenyl)-3-(3-(2-methoxyethyl)-2-methyl-4-oxo-3,4-dihydroquinazolin-6-yl)urea] | effective in reducing; also recorded: markedly reduce COP1's auto ubiquitination property | – | ++++ | higher oxygen consumption rate compared to control; also recorded: increase in the basal OCR values | no significant changes | effective in reducing the ATGL ubiquitination by COP1; also recorded: capability of subtly reducing ubiquitination of ATGL
3 | CC(=O)c1cccc(NC(=O)Nc2ccc3ncn(CCCN4CCOCC4)c(=O)c3c2)c1 [Compound 139, 1-(3-acetylphenyl)-3-(3-(3-morpholinopropyl)-4-oxo-3,4-dihydroquinazolin-6-yl)urea] | – | reduction in lipid droplets | +++ | – | – | –
4 | COCC(C)n1cnc2ccc(NC(=O)Nc3cccc(C(C)=O)c3)cc2c1=O (stereo not shown) [Compound 179, 1-(3-acetylphenyl)-3-(3-(1-methoxypropan-2-yl)-4-oxo-3,4-dihydroquinazolin-6-yl)urea] | – | – | – | – | no significant changes | –
5 | COCCn1c(-c2cccnc2)nc2ccc(NC(=O)Nc3cccc(C(C)=O)c3)cc2c1=O [Compound 215, 1-(3-acetylphenyl)-3-(3-(2-methoxyethyl)-4-oxo-2-(pyridin-3-yl)-3,4-dihydroquinazolin-6-yl)urea] | – | – | – | – | – | no such effects; also recorded: no subtle reduction in the ubiquitination smear
6 | COCCn1c(-c2ccncc2)nc2ccc(NC(=O)Nc3cccc(C(C)=O)c3)cc2c1=O [Compound 219, 1-(3-acetylphenyl)-3-(3-(2-methoxyethyl)-4-oxo-2-(pyridin-4-yl)-3,4-dihydroquinazolin-6-yl)urea] | – | – | – | – | – | no such effects; also recorded: no subtle reduction in the ubiquitination smear
7 | COCCn1c(CN2CCCCC2)nc2ccc(NC(=O)Nc3cccc(C(C)=O)c3)cc2c1=O [Compound 238, 1-(3-acetylphenyl)-3-(3-(2-methoxyethyl)-4-oxo-2-(piperidin-1-ylmethyl)-3,4-dihydroquinazolin-6-yl)urea] | markedly reduce COP1's auto ubiquitination property | – | – | higher oxygen consumption rate compared to control; also recorded: increase in the basal OCR values | – | decrease ATGL ubiquitination by COP1; also recorded: decreased
